Experimental data: the supplement of paper PMC10307832

Assays:
Assay in all cases: relative viability (nuclei count vs DMSO), 5 days (fraction); higher = more cells survive
BEN = tested on: BEN
Procedure, shortened: (§1)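 Lung cancer cell lines, seeded in 1536-well plates, were treated the following day by pin tool with a single drug or with five library-drug doses (not always all listed) in √10 steps on top of a fixed anchor-drug dose. Cells were fixed and nuclei stained in one step after 5 days, and nuclei were counted. Relative viability is the nuclei count for treated wells divided by that for vehicle wells, reported as medians of duplicate plates.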

CAL-12T = tested on: CAL-12T
Procedure, shortened: as §1

EMC-BAC-2 = tested on: EMC-BAC-2
Procedure, shortened: as §1

H3255 = tested on: H3255
Procedure, shortened: as §1

HCC-15 = tested on: HCC-15
Procedure, shortened: as §1

LU99A = tested on: LU99A
Procedure, shortened: as §1

NCI-H1395 = tested on: NCI-H1395
Procedure, shortened: as §1

NCI-H1650 = tested on: NCI-H1650
Procedure, shortened: as §1

NCI-H1734 = tested on: NCI-H1734
Procedure, shortened: as §1

NCI-H1944 = tested on: NCI-H1944
Procedure, shortened: as §1

NCI-H2009 = tested on: NCI-H2009
Procedure, shortened: as §1

NCI-H2023 = tested on: NCI-H2023
Procedure, shortened: as §1

NCI-H2347 = tested on: NCI-H2347
Procedure, shortened: as §1

NCI-H23 = tested on: NCI-H23
Procedure, shortened: as §1

NCI-H358 = tested on: NCI-H358
Procedure, shortened: as §1

NCI-H650 = tested on: NCI-H650
Procedure, shortened: as §1

SK-LU-1 = tested on: SK-LU-1
Procedure, shortened: as §1

201T = tested on: 201T
Procedure, shortened: as §1

HOP-62 = tested on: HOP-62
Procedure, shortened: as §1

NCI-H2405 = tested on: NCI-H2405
Procedure, shortened: as §1

NCI-H441 = tested on: NCI-H441
Procedure, shortened: as §1

## Cc1cn(-c2cc(NC(=O)c3ccc(C)c(Nc4nccc(-c5cccnc5)n4)c3)cc(C(F)(F)F)c2)cn1 [Nilotinib] + CS(=O)(=O)CCNCc1ccc(-c2ccc3ncnc(Nc4ccc(OCc5cccc(F)c5)c(Cl)c4)c3c2)o1 [Lapatinib] (partner 2 µM)
BEN; first compound 0.001 µM
  relative viability: 0.759
BEN; first compound 0.003162 µM
  relative viability: 0.74
BEN; first compound 0.01 µM
  relative viability: 0.757
BEN; first compound 0.03162 µM
  relative viability: 0.518
BEN; first compound 0.1 µM
  relative viability: 0.508
CAL-12T; first compound 0.001 µM
  relative viability: 0.729
CAL-12T; first compound 0.01 µM
  relative viability: 0.748
CAL-12T; first compound 0.03162 µM
  relative viability: 0.839
CAL-12T; first compound 0.1 µM
  relative viability: 0.74
EMC-BAC-2; first compound 0.001 µM
  relative viability: 0.834
EMC-BAC-2; first compound 0.003162 µM
  relative viability: 0.952
EMC-BAC-2; first compound 0.01 µM
  relative viability: 0.924
EMC-BAC-2; first compound 0.03162 µM
  relative viability: 0.784
EMC-BAC-2; first compound 0.1 µM
  relative viability: 0.606
H3255; first compound 0.001 µM
  relative viability: 0.259
H3255; first compound 0.003162 µM
  relative viability: 0.224
H3255; first compound 0.01 µM
  relative viability: 0.236
H3255; first compound 0.03162 µM
  relative viability: 0.24
H3255; first compound 0.1 µM
  relative viability: 0.217
HCC-15; first compound 0.001 µM
  relative viability: 0.835
HCC-15; first compound 0.003162 µM
  relative viability: 1.07
HCC-15; first compound 0.01 µM
  relative viability: 1.05
HCC-15; first compound 0.03162 µM
  relative viability: 0.663
HCC-15; first compound 0.1 µM
  relative viability: 0.443
LU99A; first compound 0.001 µM
  relative viability: 0.954
LU99A; first compound 0.003162 µM
  relative viability: 0.924
LU99A; first compound 0.01 µM
  relative viability: 0.921
LU99A; first compound 0.03162 µM
  relative viability: 0.775
LU99A; first compound 0.1 µM
  relative viability: 0.153
NCI-H1395; first compound 0.001 µM
  relative viability: 1.02
NCI-H1395; first compound 0.003162 µM
  relative viability: 0.575
NCI-H1395; first compound 0.01 µM
  relative viability: 0.9
NCI-H1395; first compound 0.03162 µM
  relative viability: 1.14
NCI-H1395; first compound 0.1 µM
  relative viability: 0.596
NCI-H1650; first compound 0.001 µM
  relative viability: 0.851
NCI-H1650; first compound 0.003162 µM
  relative viability: 0.931
NCI-H1650; first compound 0.01 µM
  relative viability: 0.917
NCI-H1650; first compound 0.03162 µM
  relative viability: 0.668
NCI-H1650; first compound 0.1 µM
  relative viability: 0.424
NCI-H1734; first compound 0.001 µM
  relative viability: 1
NCI-H1734; first compound 0.003162 µM
  relative viability: 1.14
NCI-H1734; first compound 0.01 µM
  relative viability: 1.27
NCI-H1734; first compound 0.03162 µM
  relative viability: 0.808
NCI-H1734; first compound 0.1 µM
  relative viability: 0.517
NCI-H1944; first compound 0.001 µM
  relative viability: 0.894
NCI-H1944; first compound 0.003162 µM
  relative viability: 0.996
NCI-H1944; first compound 0.01 µM
  relative viability: 0.742
NCI-H1944; first compound 0.03162 µM
  relative viability: 1.03
NCI-H1944; first compound 0.1 µM
  relative viability: 0.389
NCI-H2009; first compound 0.001 µM
  relative viability: 0.788
NCI-H2009; first compound 0.003162 µM
  relative viability: 1.1
NCI-H2009; first compound 0.01 µM
  relative viability: 1.08
NCI-H2009; first compound 0.03162 µM
  relative viability: 1.01
NCI-H2009; first compound 0.1 µM
  relative viability: 0.191
NCI-H2023; first compound 0.001 µM
  relative viability: 0.702
NCI-H2023; first compound 0.003162 µM
  relative viability: 0.611
NCI-H2023; first compound 0.01 µM
  relative viability: 0.739
NCI-H2023; first compound 0.03162 µM
  relative viability: 0.775
NCI-H2023; first compound 0.1 µM
  relative viability: 0.15
NCI-H2347; first compound 0.001 µM
  relative viability: 0.821
NCI-H2347; first compound 0.003162 µM
  relative viability: 1.01
NCI-H2347; first compound 0.01 µM
  relative viability: 0.823
NCI-H2347; first compound 0.03162 µM
  relative viability: 0.817
NCI-H2347; first compound 0.1 µM
  relative viability: 0.6
NCI-H23; first compound 0.001 µM
  relative viability: 1.01
NCI-H23; first compound 0.003162 µM
  relative viability: 1.13
NCI-H23; first compound 0.01 µM
  relative viability: 1.4
NCI-H23; first compound 0.03162 µM
  relative viability: 0.87
NCI-H23; first compound 0.1 µM
  relative viability: 0.704
NCI-H358; first compound 0.001 µM
  relative viability: 0.442
NCI-H358; first compound 0.003162 µM
  relative viability: 0.529
NCI-H358; first compound 0.01 µM
  relative viability: 0.539
NCI-H358; first compound 0.03162 µM
  relative viability: 0.438
NCI-H358; first compound 0.1 µM
  relative viability: 0.325
NCI-H650; first compound 0.001 µM
  relative viability: 0.897
NCI-H650; first compound 0.003162 µM
  relative viability: 0.65
NCI-H650; first compound 0.01 µM
  relative viability: 0.918
NCI-H650; first compound 0.03162 µM
  relative viability: 0.851
NCI-H650; first compound 0.1 µM
  relative viability: 0.682
SK-LU-1; first compound 0.001 µM
  relative viability: 0.769
SK-LU-1; first compound 0.003162 µM
  relative viability: 0.855
SK-LU-1; first compound 0.01 µM
  relative viability: 1.08
SK-LU-1; first compound 0.03162 µM
  relative viability: 0.558
SK-LU-1; first compound 0.1 µM
  relative viability: 0.6

## Nc1cccc2c1CN(C1CCC(=O)NC1=O)C2=O (stereo unspecified) [Lenalidomide] + C[C@]1(O)C[C@@H](c2nc(-c3ccc4ccc(-c5ccccc5)nc4c3)c3c(N)nccn32)C1 [Linsitinib] (partner 1 µM)
201T; first compound 0.253 µM
  relative viability: 1.08
201T; first compound 0.8 µM
  relative viability: 1.18
201T; first compound 2.53 µM
  relative viability: 1.05
201T; first compound 8 µM
  relative viability: 0.908
BEN; first compound 0.253 µM
  relative viability: 1.03
BEN; first compound 0.8 µM
  relative viability: 0.861
BEN; first compound 2.53 µM
  relative viability: 1.09
BEN; first compound 8 µM
  relative viability: 0.781
CAL-12T; first compound 0.253 µM
  relative viability: 0.821
CAL-12T; first compound 0.8 µM
  relative viability: 0.83
CAL-12T; first compound 2.53 µM
  relative viability: 1.15
CAL-12T; first compound 8 µM
  relative viability: 0.787
EMC-BAC-2; first compound 0.253 µM
  relative viability: 0.786
EMC-BAC-2; first compound 0.8 µM
  relative viability: 0.833
EMC-BAC-2; first compound 2.53 µM
  relative viability: 0.823
EMC-BAC-2; first compound 8 µM
  relative viability: 0.693
H3255; first compound 0.253 µM
  relative viability: 0.996
H3255; first compound 0.8 µM
  relative viability: 0.957
H3255; first compound 2.53 µM
  relative viability: 1.06
H3255; first compound 8 µM
  relative viability: 0.871
HCC-15; first compound 0.253 µM
  relative viability: 0.91
HCC-15; first compound 2.53 µM
  relative viability: 0.975
HCC-15; first compound 8 µM
  relative viability: 0.895
HOP-62; first compound 0.253 µM
  relative viability: 0.89
HOP-62; first compound 0.8 µM
  relative viability: 0.969
HOP-62; first compound 2.53 µM
  relative viability: 0.837
HOP-62; first compound 8 µM
  relative viability: 0.918
LU99A; first compound 0.253 µM
  relative viability: 0.51
LU99A; first compound 0.8 µM
  relative viability: 0.554
LU99A; first compound 2.53 µM
  relative viability: 0.466
LU99A; first compound 8 µM
  relative viability: 0.352
NCI-H1395; first compound 0.253 µM
  relative viability: 0.968
NCI-H1395; first compound 2.53 µM
  relative viability: 1.23
NCI-H1395; first compound 8 µM
  relative viability: 1.03
NCI-H1734; first compound 0.253 µM
  relative viability: 0.878
NCI-H1734; first compound 0.8 µM
  relative viability: 1
NCI-H1734; first compound 2.53 µM
  relative viability: 0.934
NCI-H1734; first compound 8 µM
  relative viability: 0.688
NCI-H1944; first compound 0.253 µM
  relative viability: 1.15
NCI-H1944; first compound 0.8 µM
  relative viability: 1.27
NCI-H1944; first compound 2.53 µM
  relative viability: 1.24
NCI-H1944; first compound 8 µM
  relative viability: 0.948
NCI-H2009; first compound 0.253 µM
  relative viability: 1.19
NCI-H2009; first compound 0.8 µM
  relative viability: 1.16
NCI-H2009; first compound 2.53 µM
  relative viability: 1.24
NCI-H2009; first compound 8 µM
  relative viability: 1.25
NCI-H2023; first compound 0.253 µM
  relative viability: 0.68
NCI-H2023; first compound 0.8 µM
  relative viability: 0.831
NCI-H2023; first compound 2.53 µM
  relative viability: 0.681
NCI-H2023; first compound 8 µM
  relative viability: 0.695
NCI-H2347; first compound 0.253 µM
  relative viability: 0.952
NCI-H2347; first compound 0.8 µM
  relative viability: 1.03
NCI-H2347; first compound 2.53 µM
  relative viability: 1
NCI-H2347; first compound 8 µM
  relative viability: 0.808
NCI-H23; first compound 0.253 µM
  relative viability: 0.452
NCI-H23; first compound 0.8 µM
  relative viability: 0.493
NCI-H23; first compound 2.53 µM
  relative viability: 0.688
NCI-H23; first compound 8 µM
  relative viability: 0.45
NCI-H2405; first compound 0.253 µM
  relative viability: 0.816
NCI-H2405; first compound 0.8 µM
  relative viability: 1.05
NCI-H2405; first compound 2.53 µM
  relative viability: 0.9
NCI-H2405; first compound 8 µM
  relative viability: 0.675
NCI-H358; first compound 0.253 µM
  relative viability: 0.751
NCI-H358; first compound 0.8 µM
  relative viability: 0.752
NCI-H358; first compound 2.53 µM
  relative viability: 0.773
NCI-H358; first compound 8 µM
  relative viability: 0.703
NCI-H441; first compound 0.253 µM
  relative viability: 0.547
NCI-H441; first compound 0.8 µM
  relative viability: 0.345
NCI-H441; first compound 2.53 µM
  relative viability: 0.692
NCI-H441; first compound 8 µM
  relative viability: 0.555
NCI-H650; first compound 0.253 µM
  relative viability: 0.929
NCI-H650; first compound 2.53 µM
  relative viability: 1
NCI-H650; first compound 8 µM
  relative viability: 0.727
SK-LU-1; first compound 0.253 µM
  relative viability: 1.1
SK-LU-1; first compound 0.8 µM
  relative viability: 1.01
SK-LU-1; first compound 2.53 µM
  relative viability: 1.19
SK-LU-1; first compound 8 µM
  relative viability: 1.16
